The source of these data is patent US6063766A, “Transport protein which effects the transport of cationic xenobiotics and/or pharmaceuticals, DNA sequences encoding it and their use” (priority 1994, dated 2000).

The target of data set [1] is MPP uptake in hepatocytes. To be noted: cultured hepatocytes; cited from earlier work.
Data set [2] addresses T1, OCT1 transport protein (Rattus norvegicus, UniProt Q63089).
T1 sequence (Q63089 1-556): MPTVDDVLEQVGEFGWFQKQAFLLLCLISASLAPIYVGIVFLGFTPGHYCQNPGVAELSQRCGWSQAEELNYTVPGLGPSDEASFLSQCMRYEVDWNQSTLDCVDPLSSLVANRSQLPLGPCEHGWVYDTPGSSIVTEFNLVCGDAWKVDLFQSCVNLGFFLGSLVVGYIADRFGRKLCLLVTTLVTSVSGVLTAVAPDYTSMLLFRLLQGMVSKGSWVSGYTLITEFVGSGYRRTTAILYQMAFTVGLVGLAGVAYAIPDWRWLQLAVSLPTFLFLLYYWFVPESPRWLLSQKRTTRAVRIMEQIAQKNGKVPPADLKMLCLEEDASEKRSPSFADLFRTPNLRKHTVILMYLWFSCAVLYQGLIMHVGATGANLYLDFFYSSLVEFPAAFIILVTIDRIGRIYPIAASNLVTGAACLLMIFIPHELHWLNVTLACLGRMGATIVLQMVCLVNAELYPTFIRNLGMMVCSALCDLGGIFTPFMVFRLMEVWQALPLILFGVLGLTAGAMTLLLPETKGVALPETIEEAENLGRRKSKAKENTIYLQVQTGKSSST
Briefly: Inhibition of ^14 C-TEA uptake in Xenopus laevis oocytes injected with OCT1 cRNA.

Data set [3] has as its target T1, OCT1 transport protein. To be noted: xenopus oocytes expressing oct1.
In data set [4] the target is T1, OCT1 transport protein. Description: cell-based.
The subject of data set [5] is LLC-PK1 cells, luminal membrane. To be noted: read-out: Ki for transport of TEA across the luminal membrane, LLC-PK1 cells; cited from earlier work.
The subject of data set [6] is LLC-PK1 cells, basolateral membrane. As to conditions: estimated, read-out: Ki for transport of TEA across the basolateral membrane, LLC-PK1 cells; cited from earlier work.
The subject of data set [7] is neuronal monoamine transport protein in synaptic vesicles. To be noted: cited from earlier work.
Data set [8] addresses T1, OCT1 transport protein. As to conditions: 8 ng OCT1 cRNA injected.
The target of data set [9] is basolateral membrane of rat proximal renal tubules. As to conditions: microperfusion experiments; previous investigations; read-out: Ki for basolateral uptake of TEA into rat proximal renal tubules; cited from earlier work.
Data set [10] concerns the target luminal uptake of TEA. As to conditions: previous investigations, cited from earlier work.
Where [11] appears, read: Ki for inhibition of OCT1-elicited ^14 C-TEA uptake.

SMILES strings stand for the structures. Read-outs that look alike come from different tables or passages of the source.

In general, Ki refers to the dissociation constant of the complex between target and ligand, obtained from inhibition or displacement. In the case of `CC[n+]1c(C=C2C=C(C)N=C(c3ccccc3)N2C)ccc2ccccc21` [Cyanine 863, 1-ethyl-2([1,4-dimethyl-2-phenyl-6-pyrimidinylidene]methyl)quinoliniumchloride], the Ki in data set [1] was 0.1 µM; in data set [2] (setting [11]) it was 0.00013 mM.

In data set [3], `CC(C)C(c1ccccc1)C(O)CC[N+]1(C)CCCCC1` (centres unmarked) [Mepiperphenidol] showed an inhibitory constant (Ki) of 5.2 ± 0.3 µM.

Consider `CCN1C(=Cc2ccc3ccccc3[n+]2CC)C=Cc2ccccc21` [Decynium 22], for which the inhibitory constant (Ki) in data set [1] was 0.23 µM; in data set [4], 0.4 µM; in data set [5], 0.0056 µM; in data set [6], more than 0.1 µM; in data set [3], 0.36 ± 0.08 µM.

On to `CNCCCN1c2ccccc2CCc2ccccc21` [Desipramine], for which the “inhibition of OCT1-elicited ^14 C-TEA uptake (in words)” value in [2] is listed as “inhibited”.

On to `COc1cc(C(O)CNC(C)C)ccc1O` (centres unmarked) [O-Methylisoprenaline], for which the Ki is 78 µM in data set [1] and 43 ± 5 µM in data set [3]. Moreover, in [2] (oocytes injected with OCT1 cRNA), the “inhibition of OCT1-elicited ^14 C-TEA uptake (in words)” value is recorded as “inhibited”.

Consider `C[n+]1ccc(-c2ccccc2)cc1` [1-Methyl-4-phenylpyridinium], for which, in [3], the inhibition constant Ki turned out to be 13 ± 2 µM.

`CCCCC[N+](CCCCC)(CCCCC)CCCCC` [Tetrapentylammonium] yielded an inhibition constant Ki in data set [3] of 0.43 ± 0.09 µM.

Consider `COC(=O)[C@H]1[C@H]2C[C@@H]3c4[nH]c5cc(OC)ccc5c4CCN3C[C@H]2C[C@@H](OC(=O)c2cc(OC)c(OC)c(OC)c2)[C@@H]1OC` [Reserpine], for which, in data set [2] (5 μM), the “effect on OCT1-elicited transport” value is given as “no effect”. Moreover, the “inhibiting concentration, neuronal monoamine transport protein in synaptic vesicles” value in [7] was “sub-nanomolar”.

On to `C=C[C@H]1C[N@@]2CC[C@H]1C[C@H]2[C@H](O)c1ccnc2ccc(OC)cc12` [Quinine], for which the “inhibition of expressed ^3 H-MPP uptake (in words)” value in data set [8] is “inhibited”.

In the case of `C[n+]1cccc(C(N)=O)c1` [N^1 -Methylnicotinamide], the Ki is 540 µM in data set [9]; 1 ± 0.2 mM in data set [2] (setting [11]); approximately 1 mM in data set [2] (Ki for inhibition of OCT1-elicited ^14 C-TEA uptake (mM, text)); 8.3e+06 nM in [10] (read-out: Ki for luminal uptake of TEA (printed in nM)). Also, the “inhibition by NMN of OCT1-induced ^14 C-TEA uptake (in words)” value in [2] was “able to inhibit”. For the same compound, the “inhibition of OCT1-elicited ^14 C-TEA uptake (in words)” value in data set [2] was “inhibited”.

Consider `C[N+](C)(C)C` [Tetramethylammonium], for which the inhibition constant (Ki) in [9] was 1400 µM; in data set [10] (read-out: Ki for luminal uptake of TEA), 7e+07 nM. Besides, the “inhibition of OCT1-elicited ^14 C-TEA uptake (in words)” value in data set [2] is given as “inhibited”.
